Assay results from PMC7230911, “Meroterpenoids from the Brown Alga Cystoseira usneoides as Potential Anti-Inflammatory and Lung Anticancer Agents” (Marine Drugs, 2020).

Key:
[1] = tested on: THP-1 macrophages; assay: Cell viability of THP-1 macrophages (SRB assay); type: cell-based, human; conditions: LPS-stimulated THP-1 macrophages, 0–100 µg/mL, 48 and 72 h, data not shown
Procedure: The cytotoxic effect of AMTs 1–8 on LPS-stimulated THP-1 macrophages was determined at different concentrations and incubation times (0–100 µg/mL, 48 and 72 h) using the SRB assay. […] Therefore, in order to rule out cytotoxic effects, compounds 1, 2, 3, 4, 7, and 8 were tested on THP-1 cells at maximum concentration of 8 µg/mL while 5 and 6 were tested at maximum concentration of 4 µg/mL. The viability of THP-1 cells was measured by the SRB assay. The cells were seeded in 96-well plates with the growth medium at a density of 1 × 10^4 cells per well, and differentiation into macrophages was induced by 0.2 μM of phorbol myristate acetate (PMA). Three days after differentiation into macrophages, the cells were treated with various concentrations (0, 3.125, 6.25, 12.5, 25, 50, 100 µg/mL) of the AMTs 1–8 in fresh medium and incubated for another 72 h. Then, the cells were fixed with 50 μL of TCA (50%) and processed, as described in the literature.

[2] = tested on: human lung adenocarcinoma A549 cells; assay: Cytotoxicity against lung cancer cells A549 (MTT assay); type: cell-based; conditions: for IC50 / viability at 50 µg/mL: Homo sapiens, A549, MTT; for IC50: 72 h of treatment, mean ± SE; for Selectivity Index SI: SI = IC50 value for normal cells (MRC-5)/IC50 value for cancer cells (A549); for viability at 50 µg/mL: 50 μg/mL, 72 h, read-out: cell viability of cancer cells
Procedure: (§1) The effect of the AMTs 1–8 on cell viability was investigated in the human lung cancer cell line A549. […] It has been reported that compounds with SI value higher or equal to 2.0 are potentially selective. […] It is worth noting that after treatment with 50 μg/mL of these two AMTs, the cell viability was lower than 15% for cancer cells and higher than 55% for normal cells.
(§2) Figure 4 Effects of different concentrations of meroterpenoids 1–8 on the viability of human lung cancer cell line A549 and the human fetal lung fibroblastic MRC-5 cells, using MTT assay after 72 h of treatment. Data are mean ±SE of three independent experiments. * p < 0.05, ** p < 0.01 and […] between the two cell lines.
(§3) Cell proliferation was evaluated by a modified MTT assay, which measures the mitochondrial dehydrogenase activity. A total of 5 × 10^3 cells/well (MRC-5 cells) and 3 × 10^3 cells/well (A549 cells) were cultured in a 96-well plate for 24 h. Then, treatments were added to the cell culture. After 72 h of incubation, the medium was removed and 125 µL of MTT (1 mg/mL in medium) was added to each well and incubated for 4 h. Next, 80 µL of 20% sodium dodecyl sulphate (SDS) was added and incubated for 5 h at 37 °C. The optical density of each well was measured at 540 nm (Synergy HT multiwell plate spectrophotometer reader, BioTek Instruments Inc., Winooski, VT, USA) to quantify cell viability. Cell viability (%) was calculated according to the following formula: % viability = (absorbance of compounds treated cells/absorbance of control cells) × 100. The degree of selectivity of the compounds was expressed by its SI value. Each SI value was calculated using the formula: SI = IC50 normal cell/IC50 cancer cell.

[3] = tested on: human fetal lung fibroblastic MRC-5 cells; assay: Cytotoxicity against normal lung cells MRC-5 (MTT assay); type: cell-based; conditions: Homo sapiens, MRC5, 72 h of treatment, mean ± SE
Procedure: as §1, §2, §3

[4] = tested on: A549 cells; assay: Cell cycle analysis of A549 cells by flow cytometry; type: cell-based, human; conditions: IC50 concentration, 24 h; for cells at S phase: control 4.99%; for cells at G2/M phase: control 14.06%
Procedure: We next investigated whether the treatment with AMTs 1–8 caused any cell cycle-related event, which inhibit the viability of A549 cell line. Thus, the cells were treated for 24 h with the AMTs at concentrations of IC50 (Table 1), or with colchicine (at 0.2 μg/mL) as the positive control, and then subjected to flow cytometry analysis to evaluate the distribution of cells in the different phases of the cell cycle (Figure 5A).
Figure 5 Effects of meroterpenoids 1–8 on cell cycle distribution of A549 cells. Cells were incubated with IC50 doses of the compounds for 24 h. (A) Cells were harvested to measure the cell cycle distribution by flow cytometry. (B) Quantitative analysis of cell cycle distribution after treatment. Data represent mean ±SE from three independent experiments. * p < 0.05, ** p < 0.01, and *** p < 0.001 compared with the untreated group (control).
For cell cycle analysis by flow cytometry, A549 cells were seeded at 1 × 10^6 cells/well in 6-well plates and incubated for 24 h followed by treatment with the AMTs, at concentration of IC50, and further incubation for 24 h. Colchicine (final concentration of 0.2 μg/mL) was used as positive control. Cells were harvested after trypsinization and washed once with PBS. Then, the cells were centrifuged at 1500 rpm for 5 min (25 °C), the pellet was fixed with 1 mL of ice-cold 70% ethanol, and the samples were stored at −4 °C overnight. Then the cells were washed with PBS and incubated in the darkness with PBS containing 5 mg/mL of RNase A for 48 h at 4 °C. Subsequently, 50 µL of propidium iodide (0.1 mg/mL) was added and the cells were incubated for 1 h at 4 °C. The relative DNA content per cell was analyzed using a Beckman Coulter Cytomics FC 500 MPL (Beckman Coulter Inc, San Diego, CA, USA). The data acquisition was performed with the DML program. The analysis of the acquired data was performed with the CXP cytometer.

[5] = tested on: colitis; design: method as in PMID 27527191; conditions: down-regulating TNF-α, IL-1ß, IL-10, suppressing COX-2 and iNOS expression in mouse colon tissue; cited from earlier work
[6] = Cytotoxicity against normal lung cells MRC-5 (MTT assay); type: cell-based, human; conditions: human, MRC-5 fetal lung fibroblast cells, 50 μg/mL, 72 h, read-out: cell viability of normal cells
Procedure: as §1, §2, §3

SMILES	concentration up to which cell viability is not affected [1]	IC50 [2] [µg/mL]	Selectivity Index SI [2]	IC50 [3] [µg/mL]	cells at S phase [4] [%]	cells at G2/M phase [4] [%]	in vivo effect in colitis (in words) [5]	viability at 50 µg/mL [2] [%]	viability at 72 h, 50 µg/mL [6] [%]	cells at G0/G1 phase ([4]; control 71.40%) [%]
COc1c(C)cc(O)cc1C/C=C(\C)CC(=O)/C=C(/C)CCCC(C)(O)C(=O)/C=C/C(C)(C)O (stereo not shown) [Compound 1, usneoidone Z]	up to 10 µg/mL	8.68 ± 0.15	1.22	10.6 ± 0.5	17.75	31.15				
COc1c(C)cc(O)cc1C/C=C(\C)CC(=O)/C=C(\C)CCCC(C)(O)C(=O)/C=C/C(C)(C)O (stereo not shown) [Compound 2, 11-hydroxy-1’-O-methylamentadione]	up to 10 µg/mL	6.61 ± 0.38	1.30	8.65 ± 0.18	17.90	31.62	intestinal anti-inflammatory activity in colitis			
COc1c(C)cc(O)cc1C/C=C(\C)CC(=O)/C=C(\C)CCCC(C)=O [Compound 3, cystomexicone B]	up to 10 µg/mL	24.4 ± 1.71	2.12	51.9 ± 2.76				< 15	> 55	
COc1c(C)cc(O)cc1C/C=C(\C)CC(=O)/C=C(/C)CCCC(C)=O [Compound 4, cystomexicone A]	up to 10 µg/mL	21 ± 1.79	2.78	58.4 ± 3.3				< 15	> 55	
COc1c(C)cc(O)cc1C/C=C(\C)CC(=O)/C=C(/C)CCCC(C)C(=O)/C=C/C(C)(C)O (stereo not drawn) [Compound 5, 6-cis-amentadione-1′-methyl ether]	up to 6 µg/mL	4.56 ± 0.21	1.83	8.39 ± 0.14						
COc1c(C)cc(O)cc1C/C=C(\C)CC(=O)/C=C(\C)CCCC(C)C(=O)/C=C/C(C)(C)O (stereo not shown) [Compound 6, amentadione-1′-methyl ether]	up to 6 µg/mL	6.19 ± 0.25	1.43	8.87 ± 0.05						
COc1c(C)cc(O)cc1/C=C/C(C)(O)CC(=O)/C=C(/C)CCCC(C)C(=O)/C=C/C(C)(C)O (stereo not shown) [Compound 7, cystodione A]	up to 10 µg/mL	9.31 ± 0.33	1.55	14.5 ± 1.14	13.69	40.19				49.31
COc1c(C)cc(O)cc1/C=C/C(C)(O)CC(=O)/C=C(\C)CCCC(C)C(=O)/C=C/C(C)(C)O (stereo not shown) [Compound 8, cystodione B]	up to 10 µg/mL	13.6 ± 0.55	1.28	17.83 ± 0.09	16.73	32.50				
